In PubChem BioAssay AID651849 (The Scripps Research Institute Molecular Screening Center, 2012):

Target: Photoreceptor-specific nuclear receptor (Homo sapiens) (UniProt Q9Y5X4)
Assay: NR2E3 agonists releasing NCOR corepressor, dose response, cell-based, luminescence, CHO-S two-hybrid, late stage (AID 651849)
Conditions: CHO-S Gal4-NCOR/VP16-NR2E3 two-hybrid, luciferase

Chain of Photoreceptor-specific nuclear receptor (Homo sapiens) (Q9Y5X4 whole entry, looked up): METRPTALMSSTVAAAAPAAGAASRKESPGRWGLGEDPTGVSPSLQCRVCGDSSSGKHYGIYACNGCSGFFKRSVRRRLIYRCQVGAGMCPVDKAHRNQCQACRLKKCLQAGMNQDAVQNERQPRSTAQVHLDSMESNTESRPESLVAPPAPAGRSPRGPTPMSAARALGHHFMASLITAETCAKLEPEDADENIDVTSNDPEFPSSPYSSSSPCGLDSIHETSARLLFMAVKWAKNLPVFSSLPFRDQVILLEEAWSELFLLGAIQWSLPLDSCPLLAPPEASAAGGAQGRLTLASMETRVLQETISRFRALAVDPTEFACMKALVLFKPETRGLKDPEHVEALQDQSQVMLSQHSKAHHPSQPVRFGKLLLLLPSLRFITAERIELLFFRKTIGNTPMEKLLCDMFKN

SMILES	IC50 [nM]
COc1cccc(NC(=O)CSc2nc3ncc(Br)cc3[nH]2)c1	3570
Cc1cccc(C(=O)N[C@H](C(=O)Nc2ncc(C)s2)C(C)C)c1	324
O=C(Nc1cccc(NC(=O)c2c(F)cccc2F)n1)c1c(F)cccc1F	7990
Cc1ccc(-c2nc(NC(=O)CSc3nnnn3-c3ccccc3)ns2)cc1	404
O=c1cc(N2CCN(c3cccc(Cl)c3)CC2)[nH]c(=O)n1C1CCCCC1	72.7
COc1ccc(S(=O)(=O)N2CCCCC2)cc1NC(=S)Nc1ccccc1	2630
COc1ccc2c(CC(=O)Nc3ncc(C)s3)coc2c1	1920
Cc1cnc(NC(=O)CCCc2nc3ccccc3s2)s1	945
O=c1c(Cl)c(N2CCN(c3ccc(F)cc3)CC2)cnn1C12CC3CC(CC(C3)C1)C2	3340
Cc1ccc(CN2CC(C(=O)Nc3ncc(C)s3)CC2=O)cc1 (stereo unspecified)	516
COc1ccc(OC)c(NC(=O)CSc2nnnn2-c2ccc3c(c2)OCO3)c1	301
COc1cccc(N2CCN(c3nc(-c4ccccc4C)cc(=O)[nH]3)CC2)c1	428
O=C(CSc1nnnn1-c1ccc2c(c1)OCCO2)Nc1nc2c(s1)CCCC2	682
Cc1cnc(NC(=O)C2CC(=O)N(c3ccc4c(c3)OCCO4)C2)s1 (stereo unspecified)	7060
NC(=O)c1nn(-c2ccccc2)nc1NC(=O)CSc1nnnn1-c1ccc(Cl)cc1	1570
COc1ccc(S(=O)(=O)N2CCCCC2)cc1NC(=S)Nc1cccc(Cl)c1C	1500
O=C(O)CC1(CC(=O)Nc2cc(C(F)(F)F)cc(C(F)(F)F)c2)CCCCC1	4020
Cc1cnc(NC(=O)Cc2ccc(Br)cc2)s1	2250
Cc1onc(-c2ccccc2Cl)c1C(=O)Nc1nc2c(s1)CCCC2	597
Cc1cccc(OCCCC(=O)Nc2nc3ccccc3[nH]2)c1	5300
COc1cc2nc(CN3CC=C(c4ccccc4)CC3)[nH]c(=O)c2cc1OC	393
Cc1ccc(NC(=O)CSc2nnnn2-c2ccc3c(c2)OCO3)cc1C	566
Cc1ccnc(NC(=O)CSc2cc(=O)n(C)c3ccccc23)c1	1430
Cc1cc(C)cc(NC(=O)CCc2nc3sc4c(c3c(=O)[nH]2)CCCC4)c1	249
COc1ccc(NC2c3ccccc3C(=O)N2Cc2ccccc2Cl)cc1OC (stereo unspecified)	4840
O=C(CSc1nnnn1-c1ccc(O)cc1)Nc1ccc(N2CCOCC2)c(Cl)c1	1250
